Test results from patent US6331553A, “Aromatic amine derivatives having NOS inhibiting action” (Chugai Seiyaku Kabushiki Kaisha, priority 1996, dated 2001).
Where two headings read alike, the source gives them in different places.

Columns and labels:
eNOS = target: T1, eNOS (Bos taurus, UniProt P29473); assay: Inhibitory effect on crude eNOS (conversion of L-[3H]arginine to L-[3H]citrulline); type: biochemical, Cow (pulmonary arterial endothelium cells, CPAE)
T1 construct: the resulting supernatant was used as the crude enzyme of eNOS; endogenous in cells; host or cells: CPAE (cow pulmonary arterial endothelium cells), 1% Triton X-100 extract
T1 sequence (P29473 2-1205): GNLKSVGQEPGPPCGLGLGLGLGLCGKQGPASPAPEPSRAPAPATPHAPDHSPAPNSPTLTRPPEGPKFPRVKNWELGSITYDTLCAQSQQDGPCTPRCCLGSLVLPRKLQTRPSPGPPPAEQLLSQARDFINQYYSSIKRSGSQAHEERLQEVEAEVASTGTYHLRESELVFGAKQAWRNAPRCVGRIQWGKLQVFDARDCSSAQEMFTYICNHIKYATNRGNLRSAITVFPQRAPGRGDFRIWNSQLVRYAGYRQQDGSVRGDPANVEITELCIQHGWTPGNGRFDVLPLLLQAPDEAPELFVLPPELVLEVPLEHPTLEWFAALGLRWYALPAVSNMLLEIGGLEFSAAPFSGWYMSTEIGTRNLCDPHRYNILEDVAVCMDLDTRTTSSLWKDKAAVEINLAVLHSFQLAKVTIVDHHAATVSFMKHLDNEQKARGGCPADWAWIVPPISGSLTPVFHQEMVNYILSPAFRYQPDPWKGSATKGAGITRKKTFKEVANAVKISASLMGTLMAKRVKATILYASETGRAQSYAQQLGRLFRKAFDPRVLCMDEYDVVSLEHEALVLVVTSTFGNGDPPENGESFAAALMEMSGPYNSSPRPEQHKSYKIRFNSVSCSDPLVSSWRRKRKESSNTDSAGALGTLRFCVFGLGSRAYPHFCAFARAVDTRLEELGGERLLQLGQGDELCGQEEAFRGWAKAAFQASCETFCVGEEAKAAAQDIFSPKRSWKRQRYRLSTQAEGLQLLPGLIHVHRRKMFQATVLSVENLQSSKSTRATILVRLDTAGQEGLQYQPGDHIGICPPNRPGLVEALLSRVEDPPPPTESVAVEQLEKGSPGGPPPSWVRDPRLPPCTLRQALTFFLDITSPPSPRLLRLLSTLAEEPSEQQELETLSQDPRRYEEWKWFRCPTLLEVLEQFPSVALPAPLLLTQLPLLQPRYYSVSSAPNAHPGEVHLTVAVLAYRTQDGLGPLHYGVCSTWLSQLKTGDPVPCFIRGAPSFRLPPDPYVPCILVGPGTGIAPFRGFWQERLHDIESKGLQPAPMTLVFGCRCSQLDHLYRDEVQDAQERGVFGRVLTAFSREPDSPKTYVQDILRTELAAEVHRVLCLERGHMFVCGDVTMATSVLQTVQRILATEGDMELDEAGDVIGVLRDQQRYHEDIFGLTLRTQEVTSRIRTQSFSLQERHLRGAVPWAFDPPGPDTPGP
Method: (§1) Compounds of the invention were evaluated for their inhibitory effect on the presently known three NOS isoforms.
Crude enzymes of the respective NOS isoforms were prepared by the following procedures (Nagafuji et al., Neuroreport 6, 1541-1545, 1995).
The crude enzyme of eNOS was prepared by the following procedure. Cow pulmonary arterial endothelium cells (CPAE) were cultured in a MEM medium containing 20% FBS. Several days later, the cells were detached from the flask using a 0.25% trypsin solution containing 1 mM EDTA and, after addition of a suitable amount of FBS, centrifuged at 1,000 rpm for 10 min. A suitable amount of Ca- and Mg-free phosphate buffer (pH 7.4) was added to the precipitating cells and they were centrifuged at 1,000 rpm for 10 min. The same step was repeated to wash the cells which, upon addition of 50 mM Tris-HCl (pH 7.4) containing 1% Triton X-100 and 1 mM DTT, were left to stand in ice for 1 h. Subsequently, the mixture was homogenized for 3 min and kept in ice for 30 min with occasional stirring. Finally, the mixture was centrifuged at 100,000×g for 60 min and the resulting supernatant was used as the crude enzyme of eNOS.
The method of measuring NOS activity was basically the same as already reported by the present inventors and consisted of determining quantitatively the conversion of a substrate L-[^3 H]arginine to a reaction product L-[^3 H] citrulline (Nagafuji et al., in Brain Edema IX (Ito et al, eds.) 60, pp. 285-288, 1994; Nagafuji et al., Neuroreport 6, 1541-1545, 1995)
The reaction solution consisted of 100 nM L-[^3 H] arginine, a prepared crude NOS enzyme sample (10-30 μg/ml protein), 1.25 mM CaCl2, 1 mM EDTA, 10 μg/ml calmodulin, 1 mM NADPH, 100 μM tetrahydrobiopterine, 10 μM FAD, 10 μM FMN and 50 mM Tris-HCl (pH 7.4), to which one of the compounds of the invention or one of the control compounds was added.
(§2) The reaction was started by addition of L-[^3 H] arginine. After incubation at 37° C. for 10 min, the reaction was terminated by addition of 2 ml of 50 mM Tris-HCl (pH 5.5) containing 1 mM EDTA and placing the mixture on ice. The reaction solution was passed through a cation-exchange resin column (Dowex AG50WX-8, Na^+ form, 3.2 ml) to separate the reaction product L-[^3 H] citrulline from the unreacted residual substrate L-[^3 H] arginine. The eluate was combined with another eluate resulting from the passage of a given amount of distilled water through the column and put into a minivial for recovery of L-[^3 H] citrulline. Thereafter, a scintillation fluid was added and the contained radioactivity was measured with a liquid scintillation counter to determine the amount of L-[^3 H] citrulline.
(§3) The activity of nNOS or eNOS was determined by subtracting the activity detected in the absence of CaCl2 and calmodulin from the activity detected in the presence of CaCl2 and calmodulin. The activity of iNOS was detected in the absence of CaCl2 and calmodulin. The protein concentration of each crude enzyme sample was determined with a micro-assay kit of Bio Rad Co. Each Experiment was conducted in a duplicate.
Table 81 lists the mean values of IC50 (the concentration necessary to inhibit 50% activity) of all test compounds against each NOS isoform. The table also lists the ratios of IC50 values to each other as an index of selectivity.

nNOS [1] = target: T2, nNOS (Rattus norvegicus, UniProt P29476); assay: biochemical; design: species or system male Sprague Dawley (SD) rats (cerebral cortex); conditions: for Selectivity eNOS/nNOS: ratio of IC50 values eNOS/nNOS; for Selectivity iNOS/nNOS: ratio of IC50 values iNOS/nNOS
T2 construct: a soluble cytosolic fraction of the finally obtained supernatant was used as the crude enzyme of nNOS; from tissue; host or cells: rat cerebral cortex, soluble cytosolic fraction (100,000×g supernatant)
Method: The crude enzyme of nNOS was prepared by the following procedure. Normal untreated male Sprague Dawley (SD) rats (body weight, 300-400 g) were decapitated; the whole brain was immediately taken out from each animal and the cerebral cortex was separated on ice. Then, 5 volumes of 50 mM Tris-HCl containing 1 mM DTT (pH 7.4) was added and the mixture was homogenized for 3 min and centrifuged at 1,000×g for 10 min. The resulting supernatant was further centrifuged at 100,000×g for 60 min and a soluble cytosolic fraction of the finally obtained supernatant was used as the crude enzyme of nNOS.

iNOS [2] = target: T3, iNOS (Rattus norvegicus, UniProt Q06518); assay: Inhibitory effect on crude iNOS (conversion of L-[3H]arginine to L-[3H]citrulline); type: biochemical, Rats (lungs, LPS treated); conditions: for IC50: mean values, duplicate, crude enzyme from lungs of LPS-treated rats, 37° C. 10 min, read-out: Inhibitory action IC50 iNOS; for Selectivity eNOS/iNOS: ratio of IC50 values eNOS/iNOS
T3 construct: a soluble cytosolic fraction of the finally obtained supernatant was used as the crude enzyme of iNOS; from tissue; host or cells: lungs of LPS-treated rats, soluble cytosolic fraction (100,000×g supernatant)
Method: as §1
The crude enzyme of iNOS was prepared by the following procedure. Rats were administered LPS (10 mg/kg) intraperitoneally and, 6 h later, perfused in a transcardiac manner with physiological saline containing 10 U/ml of heparin; thereafter, lungs were taken out. Subsequently, 5 volumes of 50 mM Tris-HCl containing 1 mM DTT (pH 7.4) was added and the mixture was homogenized for 3 min, followed by centrifugation of the homogenate at 1,000×g for 10 min. The resulting supernatant was centrifuged at 100,000×g for 60 min and a soluble cytosolic fraction of the finally obtained supernatant was used as the crude enzyme of iNOS.
as §2, §3
The table also lists the ratios of IC50 values to each other as an index of selectivity.

nNOS [3] = conditions: mouse model of focal cerebral ischemia; cited from earlier work
iNOS [4] = conditions: reported in the literature; cited from earlier work
NOS isoform = conditions: reported in the literature; cited from earlier work
nNOS [5] = conditions: reported in the literature; cited from earlier work
[6] = mean values, duplicate, crude enzyme from CPAE cells, 37° C. 10 min, read-out: Inhibitory action IC50 eNOS
[7] = mean values, duplicate, crude enzyme from rat cerebral cortex, 37° C. 10 min, read-out: Inhibitory action IC50 nNOS

SMILES | IC50 (eNOS; [6]) [nM] | IC50 (nNOS [1]; [7]) [nM] | Selectivity eNOS/nNOS (nNOS [1]) | other results
COc1c(CN)cccc1Nc1cc(C)ccn1 [Example 541] | 713 | 25.9 | 28 | –
COc1ccc([N+](=O)[O-])c(Nc2cccc(CN)c2)c1 [Example 153] | 586 | 29.8 | 20 | –
Cc1ccc([N+](=O)[O-])c(Nc2cccc(CN)c2)c1 [Example 151] | 679 | 126 | 5 | –
N=C(NCCC[C@H](N)C(=O)O)N[N+](=O)[O-] [L-NA, N^G -nitro-L-arginine, reference compound] | – | – | – | IC50 (iNOS [2]): 3460 nM; percent inhibition of nNOS activity and percent reduction of infarct volume (nNOS [3]): correlate to each other
Cc1ccc([N+](=O)[O-])c(Nc2cccc(CN)c2)n1.Cl [Example 52, 2-(3-aminomethylphenylamino)-6-methyl-3-nitropyridine hydrochloride] | 1480 | 79.8 | 19 | –
Cc1ccnc(Nc2ccc(CCN)cc2)c1 [Example 489] | – | – | – | IC50 (nNOS [1]): 22.1 nM
COc1ccc([N+](=O)[O-])c(Nc2cccc(C(C)(C)N)c2)n1 [Example 462] | 257 | 16.4 | 16 | –
Cc1ccnc(Nc2ccc(Cl)c(CN)c2)c1 [Example 491] | 1770 | 45.8 | 39 | –
CC(=N)NCCC[C@H](N)C(=O)O [L-NIO, N^G -iminoethyl-L-ornithine] | – | – | – | selectivity for iNOS (iNOS [4]): a certain degree of selectivity for iNOS
COC(=O)[C@@H](N)CCCNC(=N)N[N+](=O)[O-] [L-NAME, N^G -nitro-L-arginine methyl ester] | – | – | – | highly selective inhibitory effect on a specific NOS isoform (NOS isoform): no existing NOS inhibitors including L-NA and N^G -nitro-L-arginine methyl ester (L-NAME) have a highly selective inhibitory effect on a specific NOS isoform
Cc1ccnc(Nc2cccc(CN)c2C)c1 [Example 481] | 1980 | 78.1 | 25 | –
CCSC(=N)NCCC[C@H](N)C(=O)O [L-EIN, S-ethyl-L-thiocitrulline] | – | – | – | selectivity for nNOS (nNOS [5]): a certain degree of selectivity for nNOS
CCOc1c(Nc2cc(C)ccn2)ccc(Cl)c1CN [Example 521] | 485 | 19.5 | 25 | –
COc1ccc([N+](=O)[O-])c(Nc2cccc(CN)c2C)n1 [Example 458] | 403 | 20.8 | 19 | –
N=C(N)NN [AG, aminoguanidine] | – | – | – | selectivity for iNOS (iNOS [4]): a certain degree of selectivity for iNOS
Cc1ccnc(Nc2ccccc2CCN)c1 [Example 484] | – | – | 18 | IC50 (eNOS): 1260 nM; IC50 (nNOS [1]): 69.2 nM
CCOc1c(CN)cccc1Nc1nc(OC)ccc1[N+](=O)[O-] [Example 468] | 2480 | 56.3 | 44 | –
CCOc1ccc(Nc2cc(C)ccn2)cc1CN [Example 483] | 711 | 65.4 | 11 | –
COc1ccc([N+](=O)[O-])c(Nc2cccc(CN)c2Cl)n1 [Example 469] | 994 | 40 | 25 | –

SMILES | IC50 (eNOS; [6]) [nM] | IC50 (nNOS [1]; [7]) [nM] | Selectivity eNOS/nNOS (nNOS [1]) | other results
Cc1ccnc(Nc2cccc(CN)c2OC(C)C)c1 [Example 543] | 250 | 12.5 | 20 | –
COc1ccc([N+](=O)[O-])c(Nc2ccc(CCN)cc2)n1 [Example 460] | 1240 | 112 | 11 | –
CCc1ccc(Nc2cc(C)ccn2)cc1CN [Example 482] | 1350 | 50.5 | 27 | –
CSC(=N)NCCC[C@H](N)C(=O)O [L-MIN, S-methyl-L-thiocitrulline] | – | – | – | selectivity for nNOS (nNOS [5]): a certain degree of selectivity for nNOS
Cc1ccnc(Nc2cccc(C3(N)CCC3)c2)c1 [Example 488] | 298 | 39.9 | 8 | –
COc1ccc([N+](=O)[O-])c(Nc2cccc(CN)c2)n1 [Example 18] | 322 | 22.6 | 14 | IC50 (iNOS [2]): 917 nM; Selectivity eNOS/iNOS (iNOS [2]): 0.14; Selectivity iNOS/nNOS (nNOS [1]): 41
COc1ccc([N+](=O)[O-])c(Nc2ccc(F)c(CN)c2)n1 [Example 467] | 275 | 19.6 | 14 | –
COc1ccc([N+](=O)[O-])c(Nc2ccc(Cl)c(CN)c2)n1 [Example 466] | 421 | 35.5 | 12 | –
CCc1ccc([N+](=O)[O-])c(Nc2cccc(CN)c2)n1.Cl [Example 53, 2-(3-aminomethylphenylamino)-6-ethyl-3-nitropyridine hydrochloride] | 6620 | 86.1 | 77 | –
CCOc1c(Nc2cc(C)ccn2)ccc(C)c1CN [Example 522] | 398 | 19.7 | 20 | –
CCCOc1c(CN)cccc1Nc1cc(C)ccn1 [Example 506] | 1290 | 29.1 | 45 | –
COc1ccc([N+](=O)[O-])c(Nc2cccc(CN)c2OC)n1 [Example 465] | 1000 | 31.2 | 32 | –
Cc1ccnc(Nc2cccc(CN)c2Cl)c1 [Example 485] | 2880 | 54.4 | 53 | IC50 (iNOS [2]): 1770 nM; Selectivity eNOS/iNOS (iNOS [2]): 1.6; Selectivity iNOS/nNOS (nNOS [1]): 32
Cc1ccnc(Nc2cccc(CN)c2)c1 [Example 478] | 448 | 61.6 | 7 | –
CSc1ccc([N+](=O)[O-])c(Nc2cccc(CN)c2)n1 [Example 61] | 1610 | 126 | 13 | –
Cc1ccnc(Nc2cccc(C(C)(C)N)c2)c1 [Example 479] | 802 | 66.9 | 12 | –
CCOc1ccc([N+](=O)[O-])c(Nc2cccc(CN)c2)n1 [Example 57] | 947 | 70.8 | 13 | –
CCOc1c(CN)cccc1Nc1cc(C)ccn1 [Example 490] | 347 | 18.1 | 19 | –
